Data on one compound can be found in ChEMBL document CHEMBL1208759, “A newly synthesized, potent tyrosinase inhibitor: 5-(6-hydroxy-2-naphthyl)-1,2,3-benzenetriol” (Bioorg Med Chem Lett, 2010).

SMILES strings stand for the structures.

The nature of series [1]: Cytotoxicity against mouse B16 cells assessed as cell viability at 25 uM after 24 hrs by MTT assay. The series is classed as cell-based. The conditions noted are these: read-out: Activity.
The nature of series [2]: Cytotoxicity against mouse B16 cells assessed as cell viability at 50 uM after 24 hrs by MTT assay. The series is classed as cell-based. The conditions noted are these: read-out: Activity.
Series [3] can be described thus: Cytotoxicity against mouse B16 cells assessed as cell viability at 100 uM after 24 hrs by MTT assay. The settings on record: read-out: Activity. It is filed as cell-based. (In general: Tetrazolium assays rely on reduction of a dye to a coloured formazan, in cell work by metabolically active cells.)
For series [4], the system named is B16. Briefly: Antimelanogenic activity in mouse B16 cells assessed as inhibition of melanin content at 25 uM relative to alpha-MSH. It is filed as functional.
Series [5] relates to B16. Briefly: Antimelanogenic activity in mouse B16 cells assessed as inhibition of melanin content at 100 uM relative to alpha-MSH. The series is classed as functional.
Series [6] concerns B16. Briefly: Antimelanogenic activity in mouse B16 cells assessed as inhibition of melanin content at 400 uM relative to alpha-MSH. It is filed as functional.
For series [7], the target named is T1, Tyrosinase (Mus musculus) (UniProt P11344).
T1 sequence (whole entry): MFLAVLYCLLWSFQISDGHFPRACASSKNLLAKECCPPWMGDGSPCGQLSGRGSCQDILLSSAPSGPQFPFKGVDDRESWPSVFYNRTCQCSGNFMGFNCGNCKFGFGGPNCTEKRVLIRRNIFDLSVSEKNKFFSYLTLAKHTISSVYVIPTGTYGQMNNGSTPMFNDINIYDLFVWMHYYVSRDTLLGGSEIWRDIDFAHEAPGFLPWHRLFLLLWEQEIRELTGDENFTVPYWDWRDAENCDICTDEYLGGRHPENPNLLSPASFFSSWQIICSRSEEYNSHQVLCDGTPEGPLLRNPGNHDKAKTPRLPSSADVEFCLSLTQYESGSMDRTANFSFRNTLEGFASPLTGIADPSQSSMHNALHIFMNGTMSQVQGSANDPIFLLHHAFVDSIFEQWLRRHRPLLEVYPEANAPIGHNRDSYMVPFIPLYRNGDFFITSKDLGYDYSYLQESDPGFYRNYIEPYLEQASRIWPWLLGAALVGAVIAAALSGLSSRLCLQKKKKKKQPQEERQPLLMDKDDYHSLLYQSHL
In words: Inhibition of tyrosinase activity in mouse B16 cells at 25 uM. The series is classed as cell-based.

In series [8] the target is T1, Tyrosinase (Mus musculus). In words: Inhibition of tyrosinase activity in mouse B16 cells at 100 uM. The series is classed as cell-based.
The target of series [9] is T1, Tyrosinase (Mus musculus). Briefly: Inhibition of tyrosinase activity in mouse B16 cells at 400 uM. The series is classed as cell-based.
Series [10] has as its target T2, Tyrosinase (Agaricus bisporus) (UniProt O42713).
T2 sequence (whole entry): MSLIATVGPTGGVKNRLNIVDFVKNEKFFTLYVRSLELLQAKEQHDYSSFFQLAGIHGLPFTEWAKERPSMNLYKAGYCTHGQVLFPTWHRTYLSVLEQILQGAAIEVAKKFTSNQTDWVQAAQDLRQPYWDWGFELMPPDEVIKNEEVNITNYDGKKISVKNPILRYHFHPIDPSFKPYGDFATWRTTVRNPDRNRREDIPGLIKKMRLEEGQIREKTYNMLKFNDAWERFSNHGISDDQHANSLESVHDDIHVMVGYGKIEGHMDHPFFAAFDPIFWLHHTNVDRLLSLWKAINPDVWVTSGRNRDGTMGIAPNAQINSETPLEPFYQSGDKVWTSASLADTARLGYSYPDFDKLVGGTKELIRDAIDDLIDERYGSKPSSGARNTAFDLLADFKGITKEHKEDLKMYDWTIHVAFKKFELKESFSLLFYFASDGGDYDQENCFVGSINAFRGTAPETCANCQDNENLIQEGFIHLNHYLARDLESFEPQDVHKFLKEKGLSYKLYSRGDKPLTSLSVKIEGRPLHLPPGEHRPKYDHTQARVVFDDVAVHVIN
The conditions noted are these: 0.5 uM.
Description: Inhibition of mushroom tyrosinase at 0.5 uM

In series [11] the target is T2, Tyrosinase (Agaricus bisporus). The settings on record: 1 uM.
Description: Inhibition of mushroom tyrosinase at 1 uM
Series [12] has the same target. The conditions noted are these: 2.5 uM.
Description: Inhibition of mushroom tyrosinase at 2.5 uM
Series [13] has the same target. The conditions noted are these: 5 uM.
Description: Inhibition of mushroom tyrosinase at 5 uM

As for `Oc1ccc2cc(-c3cc(O)c(O)c(O)c3)ccc2c1`, the viability at 24 h, 25 µM in [1] was 98.3%. Also, the viability at 24 h, 50 µM in [2] was found to be 98.1%. Moreover, the viability at 24 h, 100 µM in [3] was 95.1%. Moreover, the inhibition – broadly, the share of the control response that was lost under treatment – at 25 µM in series [4] came to 50.7%. Besides, in [5], the inhibition at 100 µM came out at 45.8%. In addition, the inhibition at 400 µM in [6] came to 34.7%. Also, the inhibition worked out at 26.2% in series [7]; 14.1% in series [8]; 2.05% in series [9]; 7.53% in series [10]; 18.7% in series [11]; 39.4% in [12]. This compound also showed an inhibition in series [13] of 86.1%.
